Measured values from US12173004B2, “Pharmaceutical compositions comprising heterocycle fused gamma carboline prodrugs” (INTRA-CELLULAR THERAPIES, INC., priority 2017, dated 2024).

How the values were obtained:
[1] = molecular target: D2 (Homo sapiens (Human), UniProt P14416); experiment: biochemical; conditions: read-out: maximum inhibition D2
[2] = molecular target: TH (tyrosine hydroxylase) (Mus musculus (Mouse), UniProt P24529); experiment: CNS phosphoprotein profile, nucleus accumbens: TH; type: in vivo, mice; conditions: for increase in TH phosphorylation: Ser40, haloperidol at 2 mg/kg
Procedure: (§1) A comprehensive molecular phosphorylation study is also carried out to examine the central nervous system (CNS) profile of the compounds of Example 1 and Example 2. The extent of protein phosphorylation for selected key central nervous system proteins is measured in mice nucleus accumbens.
(§2) Mice were killed 30 minutes to 2 hours post-injection by focused microwave cranial irradiation, which preserves brain phosphoprotein as it exists at the time of death. Nucleus accumbens was then dissected from each mouse brain, sliced and frozen in liquid nitrogen. Samples were further prepared for phosphoprotein analysis via SDS-PAGE electrophoresis followed by phosphoprotein-specific immunoblotting, as described in Zhu H, et al., Brain Res. 2010 Jun. 25; 1342:11-23. Phosphorylation at each site was quantified, normalized to total levels of the protein (non-phosphorylated), and expressed as percent of the level of phosphorylation in vehicle-treated control mice.

[3] = molecular target: ERK2 (Mus musculus (Mouse), UniProt P63085); experiment: CNS phosphoprotein profile, nucleus accumbens: ERK2; type: in vivo, mice; conditions: 3 mg/kg
Procedure: as §1, §2

[4] = molecular target: 5-HT2 receptor (Mus musculus (Mouse), UniProt P35363); experiment: DOI-Induced Head Twitch Model in Mice; type: in vivo; conditions: po, p.o. 0.5 hr before DOI, read-out: EC50 (mg/kg, p.o.) for reducing DOI-induced head twitches
[5] = molecular target: GluR1 (Mus musculus (Mouse), UniProt P23818); experiment: CNS phosphoprotein profile, nucleus accumbens: GluR1; type: in vivo, mice; conditions: 3 mg/kg
Procedure: as §1, §2

[6] = molecular target: D1 (Homo sapiens (Human), UniProt P21728); conditions: read-out: Ki (nM) D1
[7] = molecular target: NR2B (Mus musculus (Mouse), UniProt Q01097); experiment: CNS phosphoprotein profile, nucleus accumbens: NR2B; type: in vivo, mice; conditions: 3 mg/kg, at 30-60 minutes
Procedure: as §1, §2

[8] = in vivo; conditions: mouse
[9] = tested on: Mice; experiment: Mouse Marble-Burying Study (OCD Model); type: in vivo
Text: The marble burying test is used to measure repetitive and anxiety-related behavior in rodents. It is based on the observation that rats and mice will bury either harmful or harmless objects in their bedding, and it has been used as an animal model to measure the effect of pharmacological interventions in treatment of repetitive behavior disorders, such as OCD.
MPEP is a selective mGluR5 glutamate receptor antagonist. […] Mice in groups (1) are orally administered the vehicle, and mice in group (4) are given an intraperitoneal injection of MPEP just prior to the start of the test.
The test is conducted in rectangular cages with 4-5 cm of wood chip bedding in a room with the window shades lowered and the door closed to minimize distractions. Fifteen clean marbles are evenly spaced on top of the bedding in three rows of five marbles. One mouse is placed in each cage. The mouse and cage is left undisturbed for 30 minutes. At the end of the test, the mouse is removed and the number of marbles buried to at least ⅔ of their depth is counted.

[10] = tested on: rats; experiment: Pulmonary function in rats; type: in vivo; conditions: for RR (breaths/min): 60 minutes
[11] = tested on: C57 mice; experiment: Formalin Paw Test (Inflammatory Pain Model); type: in vivo
[12] = in vivo; conditions: rat, iv, 1 mg/kg
[13] = tested on: rats; experiment: Gastrointestinal motility, activated charcoal transit in rats; conditions: morphine 5 mg/kg SC
[14] = Cmpd, PO 3.0 mg/kg, 30 min prior to formalin
[15] = Cmpd, SC 0.3 mg/kg, 30 min prior to formalin
[16] = Cmpd, SC 1.0 mg/kg, 30 min prior to formalin
[17] = Cmpd, SC 3.0 mg/kg, 30 min prior to formalin
[18] = morphine 5 mg/kg SC, 30 min prior to formalin

Chain of NR2B (Q01097 27-1482 limits assumed): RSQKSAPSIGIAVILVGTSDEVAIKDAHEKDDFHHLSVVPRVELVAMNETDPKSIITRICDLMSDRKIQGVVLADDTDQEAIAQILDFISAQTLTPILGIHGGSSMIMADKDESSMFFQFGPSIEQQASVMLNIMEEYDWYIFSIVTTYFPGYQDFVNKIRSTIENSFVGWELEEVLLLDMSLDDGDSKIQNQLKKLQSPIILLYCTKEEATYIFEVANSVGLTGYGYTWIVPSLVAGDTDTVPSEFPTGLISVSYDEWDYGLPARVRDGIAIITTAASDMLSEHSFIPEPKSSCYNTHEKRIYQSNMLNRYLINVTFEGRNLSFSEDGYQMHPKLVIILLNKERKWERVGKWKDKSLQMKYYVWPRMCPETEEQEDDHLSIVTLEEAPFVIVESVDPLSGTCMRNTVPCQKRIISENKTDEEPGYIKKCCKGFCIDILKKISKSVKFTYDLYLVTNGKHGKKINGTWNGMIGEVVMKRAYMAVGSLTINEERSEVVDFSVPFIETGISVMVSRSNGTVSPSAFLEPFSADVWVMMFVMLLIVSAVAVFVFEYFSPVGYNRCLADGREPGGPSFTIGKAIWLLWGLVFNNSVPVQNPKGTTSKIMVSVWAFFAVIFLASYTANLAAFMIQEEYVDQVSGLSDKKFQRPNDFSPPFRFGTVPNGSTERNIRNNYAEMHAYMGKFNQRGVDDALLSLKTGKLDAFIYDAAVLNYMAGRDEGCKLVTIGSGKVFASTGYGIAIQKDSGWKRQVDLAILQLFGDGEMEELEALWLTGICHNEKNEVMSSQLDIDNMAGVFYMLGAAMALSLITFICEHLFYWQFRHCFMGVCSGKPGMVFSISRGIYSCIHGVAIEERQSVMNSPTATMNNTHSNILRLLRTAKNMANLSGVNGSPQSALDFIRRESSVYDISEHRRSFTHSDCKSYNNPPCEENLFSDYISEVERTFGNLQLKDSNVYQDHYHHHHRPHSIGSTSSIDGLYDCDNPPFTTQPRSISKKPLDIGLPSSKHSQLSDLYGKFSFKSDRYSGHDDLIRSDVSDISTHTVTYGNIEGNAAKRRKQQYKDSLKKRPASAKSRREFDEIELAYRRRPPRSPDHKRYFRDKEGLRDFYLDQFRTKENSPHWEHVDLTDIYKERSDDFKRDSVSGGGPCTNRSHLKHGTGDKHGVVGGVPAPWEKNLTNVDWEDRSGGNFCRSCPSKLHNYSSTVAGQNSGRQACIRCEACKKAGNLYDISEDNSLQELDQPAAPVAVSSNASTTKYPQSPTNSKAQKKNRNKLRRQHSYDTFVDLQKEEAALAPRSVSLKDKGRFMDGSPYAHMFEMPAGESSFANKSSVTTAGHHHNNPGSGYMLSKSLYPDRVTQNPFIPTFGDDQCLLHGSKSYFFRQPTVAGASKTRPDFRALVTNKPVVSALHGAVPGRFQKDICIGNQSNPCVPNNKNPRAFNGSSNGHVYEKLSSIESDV
Chain of D2 (P14416 with tags, fused parts or gaps limits assumed): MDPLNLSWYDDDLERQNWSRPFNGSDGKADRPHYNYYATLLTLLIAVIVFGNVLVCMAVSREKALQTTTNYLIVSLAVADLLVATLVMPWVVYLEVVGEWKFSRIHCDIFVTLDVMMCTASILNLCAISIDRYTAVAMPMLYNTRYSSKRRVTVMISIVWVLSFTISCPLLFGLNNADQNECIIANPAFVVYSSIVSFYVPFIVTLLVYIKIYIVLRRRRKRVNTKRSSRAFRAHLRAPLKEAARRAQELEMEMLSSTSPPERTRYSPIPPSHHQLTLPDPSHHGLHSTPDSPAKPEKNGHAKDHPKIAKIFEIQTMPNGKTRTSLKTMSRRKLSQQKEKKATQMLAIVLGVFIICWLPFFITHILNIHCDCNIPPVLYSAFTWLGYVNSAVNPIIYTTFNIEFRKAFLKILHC
Chain of GluR1 (P23818 19-907 limits assumed): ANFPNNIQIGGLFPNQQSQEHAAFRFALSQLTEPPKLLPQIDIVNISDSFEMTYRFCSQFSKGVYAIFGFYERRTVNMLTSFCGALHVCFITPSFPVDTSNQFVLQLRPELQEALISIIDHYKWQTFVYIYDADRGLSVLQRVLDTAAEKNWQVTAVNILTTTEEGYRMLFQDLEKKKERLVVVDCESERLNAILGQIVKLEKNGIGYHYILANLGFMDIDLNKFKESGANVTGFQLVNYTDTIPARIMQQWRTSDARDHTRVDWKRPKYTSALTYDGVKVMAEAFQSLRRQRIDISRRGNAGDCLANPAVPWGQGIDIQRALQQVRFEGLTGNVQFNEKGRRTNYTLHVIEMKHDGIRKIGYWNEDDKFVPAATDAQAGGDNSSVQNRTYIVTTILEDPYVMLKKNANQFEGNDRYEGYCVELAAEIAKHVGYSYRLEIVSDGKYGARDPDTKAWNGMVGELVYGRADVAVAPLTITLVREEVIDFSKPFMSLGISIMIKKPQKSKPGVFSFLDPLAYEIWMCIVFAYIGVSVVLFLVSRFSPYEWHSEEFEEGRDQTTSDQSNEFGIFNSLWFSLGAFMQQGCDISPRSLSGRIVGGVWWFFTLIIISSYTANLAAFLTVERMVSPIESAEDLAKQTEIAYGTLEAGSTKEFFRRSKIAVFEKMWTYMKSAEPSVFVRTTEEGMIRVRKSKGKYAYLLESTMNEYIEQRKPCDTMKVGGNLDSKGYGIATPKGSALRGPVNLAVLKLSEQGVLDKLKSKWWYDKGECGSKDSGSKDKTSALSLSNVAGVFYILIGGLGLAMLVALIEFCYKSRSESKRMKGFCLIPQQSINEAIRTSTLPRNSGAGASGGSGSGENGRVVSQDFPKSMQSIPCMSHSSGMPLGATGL

## O=C1CN2c3c(cccc3[C@@H]3CN(CCCC(=O)c4ccc(F)cc4)CC[C@@H]32)N1 [Example 1]
[1]
  inhibition at […]: 47%
[2]; 3 mg/kg, at 30 minutes or 60 minutes
  effect on tyrosine hydroxylase phosphorylation at Ser40: neither the compound of Example 1 nor of Example 2 has a significant effect
[3]
  ERK2 phosphorylation at Thr183 and Tyr185: slight decrease
[4]
  ED50: 0.23 mg/kg
[5]
  GluR1 phosphorylation at Ser845: slight increase
[6]
  Ki: 22 nM
[7]
  effect on NR2B phosphorylation at Tyr1472: neither the compound of Example 1 nor of Example 2 has a significant effect

## O=C1CN2c3c(cccc3[C@@H]3CN(CCCOc4ccc(F)cc4)CC[C@@H]32)N1 [Example 2, (6bR,10aS)-8-(3-(4-fluorophenoxy)propyl)-6b,7,8,9,10,10a-hexahydro-1H-pyrido[3′,4′:4,5]pyrrolo[1,2,3-de]quinoxalin-2(3H)-one]
[8]; brain, po, 10 mg/kg
  Tmax: 15 min
[8]; brain, sc, 0.1 mg/kg
  Tmax: 60 min
[8]; plasma, po, 10 mg/kg
  Tmax: 15 min
[8]; plasma, sc, 0.1 mg/kg
  Tmax: 30 min
[9]; 0.3 mg/kg orally 30 minutes prior, of fifteen marbles, 30 min
  Marbles Buried: 9.3
[10]; 0.3 mg/kg s.c.
  RR (breaths/min): 181 breaths/min
[10]; 1.0 mg/kg s.c.
  RR (breaths/min): 203 breaths/min
[10]; 3.0 mg/kg s.c.
  RR (breaths/min): 190 breaths/min
[10]; 0.3, 1.0 and 3.0 mg/kg s.c., 0, 15, 60, 120, and 240 minutes
  respiratory rate, tidal volume and minute volume compared to vehicle control: no significant differences
[4]
  ED50: 0.44 mg/kg
[11]; [14]
  Mean Behavior Rating (0-4), 0-10 Min: 0.9
  Mean Behavior Rating (0-4), 0-6 min: 1.5
  Mean Behavior Rating (0-4), 11-40 min: 0.8
  Mean Behavior Rating (0-4), 16-40 min: 0.9
[11]; [15]
  Mean Behavior Rating (0-4), 0-6 min: 2.3
  Mean Behavior Rating (0-4), 11-40 min: 1.0
  Mean Behavior Rating (0-4), 16-40 min: 1.2
[11]; [16]
  Mean Behavior Rating (0-4), 0-10 Min: 1.3
  Mean Behavior Rating (0-4), 0-6 min: 1.9
  Mean Behavior Rating (0-4), 11-40 min: 1.0
  Mean Behavior Rating (0-4), 16-40 min: 1.1
[11]; [17]
  Mean Behavior Rating (0-4), 0-10 Min: 0.8
  Mean Behavior Rating (0-4), 0-6 min: 1.3
  Mean Behavior Rating (0-4), 11-40 min: 0.1
  Mean Behavior Rating (0-4), 16-40 min: 0.1
[11]; mouse, in vivo
  Mean Behavior Rating (0-4), 0-10 Min: 1.5
[12]
  bioavailability: 100%

## Cc1cccc(C#Cc2ccccc2)n1 [MPEP, 2-methyl-6-(phenylethynyl)pyridine, reference compound]
[9]; 20 mg/kg intraperitoneal just prior to test, positive control
  Marbles Buried: 0.2

## CN1CC[C@]23c4c5ccc(O)c4O[C@H]2[C@@H](O)C=C[C@H]3[C@H]1C5 [Morphine, morphine, reference compound]
[13]
  reduction in gastric motility: ~50%
[11]; [18]
  Mean Behavior Rating (0-4), 0-10 Min: 1.1
  Mean Behavior Rating (0-4), 0-6 min: 1.7
  Mean Behavior Rating (0-4), 11-40 min: 0.2
  Mean Behavior Rating (0-4), 16-40 min: 0.2

## O=C(CCCN1CCC(O)(c2ccc(Cl)cc2)CC1)c1ccc(F)cc1 [haloperidol]
[2]
  increase in TH phosphorylation: greater than 400%

## Cc1nc2n(c(=O)c1CCN1CCC(c3noc4cc(F)ccc34)CC1)CCCC2 [risperidone]
[2]
  increase in TH phosphorylation: greater than 500%
